Laboratory results: patent publication US20110105544A1, “CARBOXYLIC DERIVATIVES FOR USE IN THE TREATMENT OF CANCER” (priority 2007, published 2011)

Key:
[1] = test system: human colon cancer cell line HCT116; assay: alamarBlue viability assay, HCT116; type: cell-based; details: HCT-116, 72 hours, dose required to inhibit cell growth by 50%
Procedure: (§1) The human colon cancer cell line HCT116 and the human breast cancer cell line MCF-7 were from the American Type Culture Collection (ATCC; CCL-247 and HTB-22, respectively).
(§2) The HCT116 cell line was maintained in DMEM GlutaMAX (Invitrogen) supplemented with 10% fetal calf serum and the MCF7 cell line was maintained in RPMI1640 GlutaMAX (Invitrogen) containing 1 mM sodium piruvate and 10% fetal calf serum.
(§3) Cells were grown in a humidified incubator at 37° C. in 5% CO2.
(§4) Cells were plated in 96-well plates at a density of 6000 cells/well in 100 μl medium 24 h before addition of drugs. […] To do so, a drugs-dilution plate at twice the screening concentrations was prepared. 72 hours later, alamarBlue (Biosource, Invitrogen) viability assay was performed following manufacturer's protocol. In brief, alamarBlue diluted in media was added to cells to have a 5% solution. Cells were incubated at 37° C., 3 hours and at room temperature, 30 min. Cells with no drug and, cells with no drug and lysed with triton X-100 were used as controls. Fluorescence was monitored at 530 nm excitation and 590 nm emission wavelengths. Results were quantified using Infinite F200 Microplate Reader (Tecan Group, Ltd.). EC50 were calculated as the dose of drugs required to inhibit cell growth by 50%, with Origin 7.0 computer program.

[2] = test system: human breast cancer cell line MCF-7; assay: alamarBlue viability assay, MCF-7; type: cell-based; details: MCF7, 72 hours, dose required to inhibit cell growth by 50%
Procedure: as §1, §2, §3, §4

human recombinant HDAC 8 = target: T1, human recombinant HDAC 8 (Homo sapiens, UniProt Q9BY41); assay: HDAC inhibition assay (Fluor de Lys), HDAC8; type: biochemical; details: inhibitor-protein incubation 0 hours, reaction 3 hours, 37° C.
T1 construct: purchased BPS Bioscience 50008
T1 sequence (Q9BY41 1-377): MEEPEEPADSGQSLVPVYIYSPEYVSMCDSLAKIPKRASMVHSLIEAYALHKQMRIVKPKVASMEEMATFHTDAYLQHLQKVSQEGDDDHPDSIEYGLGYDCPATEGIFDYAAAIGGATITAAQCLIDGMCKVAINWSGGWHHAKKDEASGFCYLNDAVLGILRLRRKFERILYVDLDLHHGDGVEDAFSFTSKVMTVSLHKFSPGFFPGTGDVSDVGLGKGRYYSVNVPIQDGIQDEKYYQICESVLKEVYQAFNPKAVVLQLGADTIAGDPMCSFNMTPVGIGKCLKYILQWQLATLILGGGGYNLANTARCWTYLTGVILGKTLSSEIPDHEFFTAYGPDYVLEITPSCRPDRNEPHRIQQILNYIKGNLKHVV
Procedure: (§5) All assays were carried out in the assay buffer: 50 mM Tris/Cl, pH 8.0, 137 mM NaCl, 2.7 mM KCl, 1 mM MgCl2).
(§6) Reactions were carried out in a 96-wells microplate (Corning 96 well Flat Bottom Non-binding surface (black) ref. 3651).
(§7) Potential inhibitors were added after five fold serial dilutions in DMSO. Final DMSO concentration in the assay microplate was kept at 2%.
(§8) Afterwards, human recombinant HDAC1, HDAC 2 or HDAC 8 were added up to […] respectively in assay buffer. When necessary, the mixture was incubated at room temperature prior the addition of substrate.
(§9) Total reaction volume of 50 μl. Human recombinant HDACs could be acquired from commercial sources (HDAC1: ref. #50001, BPS Bioscience™; HDAC 2: ref. #50002, BPS Bioscience™; HDAC 8: ref. #50008, BPS Bioscience™).
(§10) Reactions were stopped with 50 μl Developer (KI-105 Fluor de Lys™, BIOMOL®) with 2 μmol/L trichostatin A (TSA, final concentration 1 μmol/L). After 20 minutes at 37° C., fluorescence (excitation 360 nm, emission 460 nm) was measured using an Infinite F200 fluorimeter (Tecan). Background was determined in reactions using substrate in the absence of enzyme.
(§11) IC50 values are defined as the compound concentration at which the deacetylase activity is 50% inhibited. In these assays the following grading was used (I: IC50≦10 μM; II: 10 μM<IC50≦100 μM; III: 100 μM<IC50≦1 mM) The results obtained are summarized in Table 4.

human recombinant HDAC 2 = target: T2, human recombinant HDAC 2 (Homo sapiens, UniProt Q92769); assay: HDAC inhibition assay (Fluor de Lys), HDAC2; type: biochemical; details: inhibitor-protein incubation 2 hours, reaction 1 h 30 min, 37° C.
T2 construct: purchased BPS Bioscience 50002
T2 sequence (Q92769 whole entry): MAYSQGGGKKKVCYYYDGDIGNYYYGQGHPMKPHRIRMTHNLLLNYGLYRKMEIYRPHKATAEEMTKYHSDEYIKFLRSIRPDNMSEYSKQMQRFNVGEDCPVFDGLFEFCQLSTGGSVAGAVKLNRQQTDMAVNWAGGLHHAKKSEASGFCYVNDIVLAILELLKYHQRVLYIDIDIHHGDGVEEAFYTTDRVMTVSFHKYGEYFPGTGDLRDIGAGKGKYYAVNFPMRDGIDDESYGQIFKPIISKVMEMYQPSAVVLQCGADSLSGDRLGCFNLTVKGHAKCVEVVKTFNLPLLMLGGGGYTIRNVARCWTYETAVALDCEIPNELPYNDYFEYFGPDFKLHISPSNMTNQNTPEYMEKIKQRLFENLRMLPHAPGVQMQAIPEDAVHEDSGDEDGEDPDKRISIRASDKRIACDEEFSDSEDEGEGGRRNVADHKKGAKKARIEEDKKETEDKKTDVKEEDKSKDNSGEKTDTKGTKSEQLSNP
Procedure: as §5, §6, §7, §8, §9, §10, §11

MDA-MB-468 (breast) = assay: alamarBlue viability assay, MDA-MB-468; type: cell-based; details: Homo sapiens, 72 hours
Procedure: (§12) Additionally, the following cancer cell lines were used:
as §3
(§13) Cells were plated in 96-well plates at a density of 6000 cells/well in 100 μl medium 24 h before addition of drugs. They were then added in concentrations from 100 μM to 0.45 nM (each concentration in triplicate). To do so, a drugs-dilution plate at twice the screening concentrations was prepared. 72 hours later, alamarBlue (Biosource, Invitrogen) viability assay was performed following manufacturer's protocol. In brief, alamarBlue diluted in media was added to cells to have a 5% solution. Cells were incubated at 37° C., 3 hours and at room temperature, 30 min. Cells with no drug and, cells with no drug and lysed with triton X-100 were used as controls. Fluorescence was monitored at 530 nm excitation and 590 nm emission wavelengths. Results were quantified using Infinite F200 Microplate Reader (Tecan Group, Ltd.). EC50 were calculated as the dose of drugs required to inhibit cell growth by 50%, with Origin 7.0 computer program.

K562 (lymphoma) = assay: alamarBlue viability assay, K562; type: cell-based; details: Homo sapiens, 72 hours
Procedure: as §12, §3, §4

MDA-MB-435P (breast) = assay: alamarBlue viability assay, MDA-MB-435P; type: cell-based; details: 72 hours
Procedure: as §12, §3, §13

PC3 (prostate) = assay: alamarBlue viability assay, PC3; type: cell-based; details: 72 hours
Procedure: as §12, §3, §4

Hep3B (hepatocarcinoma) = assay: alamarBlue viability assay, Hep3B; type: cell-based; details: Homo sapiens, 72 hours
Procedure: as §12, §3, §4

Compound | EC50 [1] | EC50 [2] | IC50 (human recombinant HDAC 8) | IC50 (human recombinant HDAC 2) | EC50 (MDA-MB-468 (breast)) | EC50 (K562 (lymphoma)) | EC50 (MDA-MB-435P (breast)) | EC50 (PC3 (prostate)) | EC50 (Hep3B (hepatocarcinoma))
COC(=O)C(C)CCc1ccccc1 (centres unmarked) [Example 2, methyl 2-methyl-4-phenylbutanoate] | 238 µM | 696 µM |  |  |  |  |  |  | 
CC(CCc1ccccc1)C(=O)O (centres unmarked) [Example 3, 2-Methyl-4-phenylbutanoic acid] | 4510 µM | > 5000 µM | 100 to 1000 µM |  |  |  |  |  | 
CCC(CCc1ccccc1)C(=O)OC (centres unmarked) [Example 4, Methyl 2-ethyl-4-phenylbutanoate] | 105 µM | 354 µM |  |  |  |  |  |  | 
CCC(CCc1ccccc1)C(=O)O (centres unmarked) [Example 5, 2-Ethyl-4-phenylbutanoic acid] | 2420 µM | 1420 µM |  |  |  |  |  |  | 
CCCC(CCc1ccccc1)C(=O)O (centres unmarked) [Example 7, 2-(2-Phenylethyl)pentanoic acid] | 680 µM | 1850 µM | 10 to 100 µM | 100 to 1000 µM |  |  |  |  | 
COC(=O)C(CCc1ccccc1)Cc1ccccc1 (centres unmarked) [Example 8, Methyl 2-benzyl-4-phenylbutanoate] |  | 5000 µM |  |  |  |  |  |  | 
O=C(O)C(CCc1ccccc1)Cc1ccccc1 (centres unmarked) [Example 9, 2-Benzyl-4-phenylbutanoic acid] | 636 µM | 1060 µM | 100 to 1000 µM |  | 364 µM | 472 µM | 242 µM | 364 µM | 
CNS(=O)(=O)c1ccc(CCCC(CCc2ccccc2)C(=O)O)cc1 (centres unmarked) [Example 13, 5-(4-[(Methylamino)sulfonyl]phenyl)-2-(2-phenylethyl)pentanoic acid] | 2400 µM | 1800 µM | 100 to 1000 µM |  |  |  |  |  | 
CNS(=O)(=O)c1cccc(CCCC(CCc2ccccc2)C(=O)OCOC(C)=O)c1 (centres unmarked) [Example 19, (Acetyloxy)methyl 5-(3-[(methylamino)sulfonyl]phenyl)-2-(2-phenylethyl)pentanoate] | 65 µM |  |  |  | 13 µM |  | 6.7 µM |  | 
COc1ccc(NS(=O)(=O)c2cccc(CCCC(CCc3ccccc3)C(=O)O)c2)cc1OC (centres unmarked) [Example 43, 5-(3-{[(3,4-dimethoxyphenyl)amino]sulfonyl}phenyl)-2-(2-phenylethyl)pentanoic acid] | 75 µM |  | 10 to 100 µM | 100 to 1000 µM | 87 µM | 2.55 µM | 210 µM | 336 µM | 
CCc1ccc(CCC(CCCc2cccc(NC(=O)c3ccc(N(C)C)cc3)c2)C(=O)O)cc1 (centres unmarked) [Example 49, 5-(3-{[4-(Dimethylamino)benzoyl]amino}phenyl)-2-[2-(4-ethylphenyl)ethyl]pentanoic acid] | 140 µM |  | ≤ 10 µM | 100 to 1000 µM |  |  |  |  | 
O=C(O)C(CCCc1ccccc1)CCc1ccc(OCc2ccccc2)cc1 (centres unmarked) [Example 55, 2-[2-(4-Benzyloxyphenyl)ethyl]-5-phenylpentanoic acid] | 23 µM |  | ≤ 10 µM | 10 to 100 µM | 43 µM |  | 16 µM | 102 µM | 418 µM
COc1ccc(CCC(CCCc2ccccc2)C(=O)O)cc1 (centres unmarked) [Example 57, 2-[2-(4-Methoxyphenyl)ethyl]-5-phenylpentanoic acid] | 242 µM |  | 10 to 100 µM | 100 to 1000 µM |  |  |  |  | 
O=C(O)C(CCCc1ccccc1)OCc1ccccc1 (centres unmarked) [Example 69, 2-(Benzyloxy)-5-phenylpentanoic acid] | 965 µM |  | 10 to 100 µM | 100 to 1000 µM |  |  |  |  | 
O=C(O)C(CCCc1ccccc1)CCc1ccc(-c2cccnc2)cc1 (centres unmarked) [Example 77, 2-[2-(4-Pyridin-3′-ylphenyl)ethyl]-5-phenylpentanoic acid] | 90 µM |  | ≤ 10 µM | 10 to 100 µM |  |  |  |  | 
